Experimental data from US20260042801A1, “COMPOSITIONS AND METHODS FOR DYE-BOUND CYCLIZED PEPTIDES FOR MEDICAL USE” (The Texas A&M University System, priority 2022, published 2026).

Assays:
[1] = test system: severe T8 contusion/compression SCI; experiment: Preclinical SCI model: locomotor test (BMS) and survival; assay type: in vivo, mouse; conditions: IP daily 5 and 25 mg/kg/day
Experimental: FIG. 8: Timeline of the preclinical in vivo animal study conducted as evidence of claims. Mice underwent baseline cognitive testing and blood collection immediately before SCI. Mice sustained an SCI at 8 weeks of age. SCI model: thoracic-8 contusion (50 kdyne impact) and compression ([…]), a severe contusion/compression model that accurately represents injuries seen in the clinic. 5c(i) (5 or 25 mg/kg/day) or Vehicle were administered IP daily starting 4 hours post injury to reflect the delay found in the clinic. Locomotor behavioral testing (BMS and Rotarod) were conducted weekly for 7 weeks. 7 weeks after injury, the mice underwent cognitive behavioral testing (NOR and Y-maze) and blood collection once again. Mice were euthanized 7 weeks after sustaining an SCI and underwent perfusion and tissue preparations for further analysis.
9A) BMS Score and 9B) BMS Sub Score were recorded and graphed in relation to time after injury. 9C) Percent of mice surviving at 49 days post injury. […] N=6-8. Graphs show mean and SEM. […] Student's T-test.
Open Field Basso Mouse Scale (BMS): Mice were placed in an open field for 5 minutes to allow mice to freely roam to visually evaluate (by 2 individuals) the following parameters: ankle movements, stepping pattern, coordination, paw placement, trunk instability, and tail position. The mice were scored according to the BMS scoring system^59 with a minimum score of 0 (no movement) to a maximum score of 9 (normal locomotion) followed by the BMS Sub score (assessing stepping patterns, tail movement, trunk posture, paw position, and coordination)^12,60. Rotarod: Mice were placed on a rod rotating at increasing speeds from 5 to 45 rotations per minute (rpm) in a 3-minute interval with constant acceleration to assess strength, endurance, and motor coordination^12,60. Mice were first acclimated to the rotarod with 5 habituation sessions the week before injury. Baseline testing was conducted 1 day before injury. […]

[2] = test system: severe T8 contusion/compression SCI; experiment: Preclinical SCI model: liver Masson's trichrome collagen deposition; assay type: in vivo, mouse; conditions: 7 weeks post injury
Experimental: N=6-8. […] Student's T-test.
Mice were sacrificed 7 weeks after injury by a lethal dose of Fatal plus (pentobarbital), then, transcardial perfusion was performed with PBS-Heparin (10,000 unit/L, 20 mL, 5 mL/min) followed by a 4% paraformaldehyde fixative solution (30 mL/mouse, at 5 mL/min). Right after perfusion, tissues were immersed in 4% PFA for 24 hours, transferred to 15% sucrose for 24 hours, then transferred to 30% sucrose for 24 hours before being embedded. Subsequently, the spinal cords (at injury site±1 mm) were cut into 25 μm-thick transverse sections using a freezing microtome (THERMO FISHER SCIENTIFIC® (laboratory reagents), Microm HM550). […] The images were acquired using VS120 Virtual Slide Microscope (Olympus) and Axio Observer 7 (ZEISS® (optical products)) and analyzed with QuPath 0.4.3. […] The lesion size was measured by tracing the glial scar border labeled with GFAP surrounding a DAPI^+ inner region. Cavity size was measured by measuring the region within the spinal cord without any visible nuclei yet surrounded by GFAP labeled glial scar. Three spinal cord sections per animal were imaged and analyzed. […] Images were quantified using QuPath software. […] Collagen accumulation was quantified using automated QuPath software to determine the extent of fibrosis.

## C-DIRG-C BODIPY® (fluorescent dye) [5c(i)]
[1]
  mice surviving at 49 days post injury: improves survival
[1]; 7 weeks
  BMS Sub score: significantly improved
  BMS score: significantly improved
[2]
  liver collagen deposition: alleviated
